Data set [1] addresses T1, Cr transporter (CrT) (Rattus norvegicus, UniProt P28570).
T1 construct: measuring ^14C—Cr uptake in primary RNCMs; endogenous in cells; host or cells: primary rat neonatal cardiomyocytes (RNCM)
T1 sequence (P28570 1-635): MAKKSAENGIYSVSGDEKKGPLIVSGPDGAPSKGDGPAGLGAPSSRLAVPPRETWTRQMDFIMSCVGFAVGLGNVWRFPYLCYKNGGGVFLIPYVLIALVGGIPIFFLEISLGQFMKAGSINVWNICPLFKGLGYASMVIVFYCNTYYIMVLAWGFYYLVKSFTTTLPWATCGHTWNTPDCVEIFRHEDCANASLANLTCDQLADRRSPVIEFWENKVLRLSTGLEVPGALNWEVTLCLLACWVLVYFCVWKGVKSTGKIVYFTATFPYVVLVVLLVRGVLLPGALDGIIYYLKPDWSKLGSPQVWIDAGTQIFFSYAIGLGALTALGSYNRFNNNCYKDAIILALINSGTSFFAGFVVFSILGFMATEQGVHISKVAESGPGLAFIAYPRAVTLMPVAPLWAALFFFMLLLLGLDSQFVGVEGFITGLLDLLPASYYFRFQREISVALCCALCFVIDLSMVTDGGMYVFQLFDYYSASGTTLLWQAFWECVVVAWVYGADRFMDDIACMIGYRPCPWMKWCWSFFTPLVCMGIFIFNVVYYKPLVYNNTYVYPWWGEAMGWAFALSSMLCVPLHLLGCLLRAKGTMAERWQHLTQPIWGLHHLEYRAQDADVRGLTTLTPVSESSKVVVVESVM
The data set is described as follows: 14C-Cr transport in rat neonatal cardiomyocytes (RNCM) after DOX incubation. The format is cell-based. The settings on record: 100 nmol/L DOX. How it is done: Cells were plated on tissue culture dishes pre-coated with gelatin/fibronectin and allowed to grow in M199 media (INVITROGEN, Carlsbad, Calif.) containing 2% serum before experimentation. All animals were treated according to protocols approved by Duke University's Institutional Animal Care and Use Committee. HL-1 cells (passages 50 to 75), were plated onto fibronectin/gelatin-coated plates and cultured in CLAYCOMB media (SIGMA, St. Louis, Mo.) supplemented with 10% fetal bovine serum, 100 units/ml penicillin, 100 μg/ml streptomycin, 0.1 mM norepinephrine, and 2 mmol/L L-glutamine, as described previously (White S. M., et al., Am J Physiol Heart Circ Physiol 286: H823-829, 2004). The cultures were maintained in a humidified atmosphere of 5% CO2 at 37° C.
Cr transport assays were performed after growth in control media for 0, 4, 12, 24 or 48 hrs.
Cells used for Cr transport assays were cultured in 24-well plates coated with fibronectin and gelatin. […]
For assays that measured Cr transport kinetics, the final Cr content in the uptake buffer ranged from 5 to 305 μmol/L. Uptake was terminated by aspiration of the radiolabeled solution, followed by 3 washes with ice-cold choline buffer. […] Cr transport was normalized to the protein concentration measured using the bicinchoninic acid (BCA) protein assay (PIERCE BIOTECHNOLOGY, Rockford, Ill.). […]

Data set [2] deals with RNCM. The data set is described as follows: Caspase 3/7 apoptosis assay in RNCM. The settings on record: 100 nmol/L DOX, up to 48 hrs. Type of data set: cell-based, rat. On the procedure: Apoptosis was measured using PROMEGA's CASPASE-GLO 3/7 ASSAY SYSTEM (PROMEGA). Briefly, attached cells in a single 24-well plate were washed 3 times with ice-cold PBS and resuspended in 500 μl of 1% TRITON-X100; 10% glycerol; 2 mmol/L EDTA; 137 mmol/L NaCl; and 20 mmol/L Tris, pH 8.0. A mixture of 25 μL of lysate and 25 μL of caspase 3/7-assay reagent was prepared, and sequential luminescent readings were taken every 15 min for 4 hrs. Peak signal readings were normalized to protein content and plotted.

Data set [3] deals with HL-1 cells. The data set is described as follows: LDH release cytotoxicity assay in HL-1 cells. The format is cell-based, murine. On the procedure:
Toxicity was assessed by quantifying the amount of lactate dehydrogenase (LDH) present in the culture media using PROMEGA's CYTOTOX96 NON-RADIOACTIVE ASSAY (PROMEGA, Madison, Wis.). Maximum cytotoxicity was determined by measuring the amount of LDH released in cells incubated with the kit's lysis buffer. The percentage of LDH released after DOX treatment was compared with that of controls.

For data set [4] the following is noted: cited from earlier work.

The values that follow come from patent US20120315654A1, “COMPOSITIONS AND METHODS FOR DETECTING CARDIOTOXICITY” (DUKE UNIVERSITY, priority 2011, published 2012).

Take `COc1cccc2c1C(=O)c1c(O)c3c(c(O)c1C2=O)C[C@@](O)(C(=O)CO)C[C@@H]3O[C@H]1C[C@H](N)[C@H](O)[C@H](C)O1` [DOX, Doxorubicin]: the “Decrease in Cr uptake” value in data set [1] (32 hrs before the 36 hrs point (FIG. 1A)) is 37%. For the same molecule, the “Cr transport (14C-Cr uptake)” value in data set [1] (within 2-4 hrs of exposure, vs control media) is given as “decreased significantly”. Besides, in data set [2], the “Apoptosis (caspase 3/7 activation)” value is “No increase”. Also, in data set [3] (HL-1, 50 nmol/L DOX, through 48 hrs), the LDH release entry is on record as “not significantly elevated”. Moreover, in data set [3] (HL-1, 100 nmol/L DOX, 24 hrs), the “Increase in LDH release compared with controls” value is “approximately 10%”. The “Average steady-state concentration typically measured in patient plasma” value in data set [4] was 100 nmol/L.
